Assay results: ChEMBL document CHEMBL1201862, “PubChem BioAssay data set” (2004)
Active and inactive are the calls of the source. For most assays here, no stated cut-off is given here; in the data, actives have a measured IC50 and inactives only a lower limit.

Assays:
[1] = target: T1, Sentrin-specific protease 8 (Homo sapiens, UniProt Q96LD8); assay: SENP8 protease inhibitors, SAR follow-up, biochemical, luminescence, set 2 (AID 588601); assay type: functional
T1 sequence (Q96LD8 whole entry): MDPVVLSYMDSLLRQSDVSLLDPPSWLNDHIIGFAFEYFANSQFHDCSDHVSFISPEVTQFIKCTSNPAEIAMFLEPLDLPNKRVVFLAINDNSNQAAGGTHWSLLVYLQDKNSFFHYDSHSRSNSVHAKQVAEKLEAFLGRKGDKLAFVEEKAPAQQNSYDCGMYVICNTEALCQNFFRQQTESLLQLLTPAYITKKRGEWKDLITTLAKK

[2] = target: T2, Sentrin-specific protease 7 (Homo sapiens, UniProt Q9BQF6); assay: SENP7 protease inhibitors, SAR follow-up, biochemical, luminescence (AID 504497); assay type: functional
T2 sequence (Q9BQF6 whole entry): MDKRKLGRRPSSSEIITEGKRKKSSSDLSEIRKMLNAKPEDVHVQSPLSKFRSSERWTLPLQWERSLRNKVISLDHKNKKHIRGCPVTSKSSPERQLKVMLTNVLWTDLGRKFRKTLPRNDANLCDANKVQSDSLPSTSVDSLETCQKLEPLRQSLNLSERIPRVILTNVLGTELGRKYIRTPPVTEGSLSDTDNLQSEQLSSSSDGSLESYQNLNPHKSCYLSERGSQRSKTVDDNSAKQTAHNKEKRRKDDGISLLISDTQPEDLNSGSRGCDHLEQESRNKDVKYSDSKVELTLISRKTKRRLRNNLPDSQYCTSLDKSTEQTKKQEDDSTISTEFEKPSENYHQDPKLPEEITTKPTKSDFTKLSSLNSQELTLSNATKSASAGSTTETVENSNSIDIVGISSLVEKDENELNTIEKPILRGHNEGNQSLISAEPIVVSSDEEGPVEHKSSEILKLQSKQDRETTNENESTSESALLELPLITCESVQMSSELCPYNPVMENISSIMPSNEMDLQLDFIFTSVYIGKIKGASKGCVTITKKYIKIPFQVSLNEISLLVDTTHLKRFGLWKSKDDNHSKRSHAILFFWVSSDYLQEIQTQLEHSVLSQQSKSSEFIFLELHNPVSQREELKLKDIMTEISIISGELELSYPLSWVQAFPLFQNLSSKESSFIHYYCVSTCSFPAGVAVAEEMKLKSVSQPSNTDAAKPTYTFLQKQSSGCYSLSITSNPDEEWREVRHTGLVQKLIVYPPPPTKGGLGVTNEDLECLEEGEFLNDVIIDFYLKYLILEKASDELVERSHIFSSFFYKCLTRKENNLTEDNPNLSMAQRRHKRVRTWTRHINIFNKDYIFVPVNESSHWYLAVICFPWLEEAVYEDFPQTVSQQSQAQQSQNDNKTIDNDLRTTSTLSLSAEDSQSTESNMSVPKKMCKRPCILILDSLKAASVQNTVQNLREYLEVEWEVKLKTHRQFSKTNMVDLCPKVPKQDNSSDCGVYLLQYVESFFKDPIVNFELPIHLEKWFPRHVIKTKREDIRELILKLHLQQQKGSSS

Caspase-3 [3] = target: T3, Caspase-3 (Homo sapiens, UniProt P42574); assay: SAR Analysis of small molecule inhibitors of Sentrin-specific proteases (SENPs) using a Caspase-3 Selectivity assay. [Related pubchem assays (depositor defined):AID2540, AID2599, AID434973, AID489001]; assay type: functional
T3 sequence (P42574 whole entry): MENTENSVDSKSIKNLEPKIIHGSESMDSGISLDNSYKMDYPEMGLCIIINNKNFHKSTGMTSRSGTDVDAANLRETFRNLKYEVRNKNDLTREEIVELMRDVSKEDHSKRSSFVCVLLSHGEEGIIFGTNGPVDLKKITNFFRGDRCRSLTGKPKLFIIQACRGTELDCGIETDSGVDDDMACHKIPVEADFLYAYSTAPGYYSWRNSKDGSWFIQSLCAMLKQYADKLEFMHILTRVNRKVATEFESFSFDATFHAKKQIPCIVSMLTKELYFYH

[4] = target: T4, Sentrin-specific protease 6 (Homo sapiens, UniProt Q9GZR1); assay: SAR Analysis of small molecule inhibitors of Sentrin-specific protease 6 (SENP6) using a Luminescent assay. [Related pubchem assays (depositor defined):AID2582, AID2599]; assay type: functional
T4 sequence (Q9GZR1 whole entry): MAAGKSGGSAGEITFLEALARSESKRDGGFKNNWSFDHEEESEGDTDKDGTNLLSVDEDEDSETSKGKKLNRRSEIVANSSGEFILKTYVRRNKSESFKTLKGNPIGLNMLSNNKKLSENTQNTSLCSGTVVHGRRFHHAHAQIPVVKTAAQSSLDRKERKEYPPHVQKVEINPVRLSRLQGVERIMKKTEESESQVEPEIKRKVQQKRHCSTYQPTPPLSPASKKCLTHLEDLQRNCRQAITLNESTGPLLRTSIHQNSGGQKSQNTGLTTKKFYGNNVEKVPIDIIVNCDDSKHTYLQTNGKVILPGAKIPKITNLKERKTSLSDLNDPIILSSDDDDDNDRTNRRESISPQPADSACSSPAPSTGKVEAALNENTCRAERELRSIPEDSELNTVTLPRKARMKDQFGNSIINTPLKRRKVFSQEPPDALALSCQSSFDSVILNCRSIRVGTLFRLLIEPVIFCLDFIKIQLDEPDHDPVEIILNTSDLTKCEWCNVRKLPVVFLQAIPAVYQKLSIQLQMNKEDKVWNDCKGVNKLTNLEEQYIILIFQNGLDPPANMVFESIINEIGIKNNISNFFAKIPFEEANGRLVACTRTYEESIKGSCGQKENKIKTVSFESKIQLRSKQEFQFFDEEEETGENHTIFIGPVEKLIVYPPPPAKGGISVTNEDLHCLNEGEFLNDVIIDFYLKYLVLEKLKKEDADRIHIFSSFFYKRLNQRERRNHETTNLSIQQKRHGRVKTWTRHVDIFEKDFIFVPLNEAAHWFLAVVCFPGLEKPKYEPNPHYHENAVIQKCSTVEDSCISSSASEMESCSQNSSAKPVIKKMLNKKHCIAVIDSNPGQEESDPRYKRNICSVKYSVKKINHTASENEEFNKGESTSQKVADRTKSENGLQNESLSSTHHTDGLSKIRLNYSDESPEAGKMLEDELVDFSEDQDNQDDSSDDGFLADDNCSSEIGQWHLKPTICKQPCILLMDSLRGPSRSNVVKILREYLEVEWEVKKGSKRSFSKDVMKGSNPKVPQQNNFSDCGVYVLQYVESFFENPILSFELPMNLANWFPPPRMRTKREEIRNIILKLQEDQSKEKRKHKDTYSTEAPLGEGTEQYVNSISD

[5] = target: T4, Sentrin-specific protease 6; assay: SENP6 protease inhibitors, SAR follow-up, biochemical, luminescence, set 2 (AID 588598); assay type: functional
[6] = target: T1, Sentrin-specific protease 8; assay: SENP8 protease inhibitors, SAR follow-up, biochemical, luminescence (AID 504501); assay type: functional
Caspase-3 [7] = target: T3, Caspase-3; assay: caspase-3 inhibitors as off-family protease, SAR follow-up, selectivity assay for SENP protease inhibitor project, biochemical, luminescence, set 2 (AID 588599); assay type: functional
[8] = target: T2, Sentrin-specific protease 7; assay: SENP7 protease inhibitors, SAR follow-up, biochemical, luminescence, set 2 (AID 588600); assay type: functional
Insulin-degrading enzyme [9] = target: T5, Insulin-degrading enzyme (Homo sapiens, UniProt P14735); assay: activators of recombinant IDE enzyme, dose response, counter-screen for IDE activator project, biochemical, fluorescence polarization (AID 588681)
T5 sequence (P14735 whole entry): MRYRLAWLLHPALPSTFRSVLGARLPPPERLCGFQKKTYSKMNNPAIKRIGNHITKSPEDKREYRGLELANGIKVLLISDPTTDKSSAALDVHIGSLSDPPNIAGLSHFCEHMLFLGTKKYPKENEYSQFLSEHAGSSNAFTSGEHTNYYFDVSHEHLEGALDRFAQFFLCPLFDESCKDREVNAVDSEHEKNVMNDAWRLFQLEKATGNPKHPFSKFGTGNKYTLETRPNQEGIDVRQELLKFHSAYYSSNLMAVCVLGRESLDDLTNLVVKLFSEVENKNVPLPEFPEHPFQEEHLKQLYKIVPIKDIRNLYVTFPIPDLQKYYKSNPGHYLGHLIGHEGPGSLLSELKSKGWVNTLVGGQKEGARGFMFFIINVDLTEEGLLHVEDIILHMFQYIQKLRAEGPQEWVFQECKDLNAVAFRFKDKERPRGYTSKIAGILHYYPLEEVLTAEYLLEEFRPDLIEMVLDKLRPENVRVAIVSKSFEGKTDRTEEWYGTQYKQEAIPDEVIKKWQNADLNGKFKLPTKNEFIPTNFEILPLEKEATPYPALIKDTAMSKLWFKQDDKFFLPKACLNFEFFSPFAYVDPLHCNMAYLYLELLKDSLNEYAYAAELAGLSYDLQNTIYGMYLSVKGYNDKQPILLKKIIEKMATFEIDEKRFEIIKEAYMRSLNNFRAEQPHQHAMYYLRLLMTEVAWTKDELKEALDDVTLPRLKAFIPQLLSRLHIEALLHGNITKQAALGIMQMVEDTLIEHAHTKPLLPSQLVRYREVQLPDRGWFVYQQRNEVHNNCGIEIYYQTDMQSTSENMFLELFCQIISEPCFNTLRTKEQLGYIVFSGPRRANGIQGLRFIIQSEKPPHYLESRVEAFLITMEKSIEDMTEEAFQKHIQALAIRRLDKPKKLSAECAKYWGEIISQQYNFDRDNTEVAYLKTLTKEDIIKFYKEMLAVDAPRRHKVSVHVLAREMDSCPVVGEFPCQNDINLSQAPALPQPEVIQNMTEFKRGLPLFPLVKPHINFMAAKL

Bcl-2-related protein A1 = target: T6, Bcl-2-related protein A1 (Mus musculus, UniProt Q07440); assay type: functional;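 further: confirmatory dose–response counterscreen on Bfl-1, used to check hits from a UBC13 polyubiquitin inhibitor campaign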
T6 sequence (Q07440 whole entry): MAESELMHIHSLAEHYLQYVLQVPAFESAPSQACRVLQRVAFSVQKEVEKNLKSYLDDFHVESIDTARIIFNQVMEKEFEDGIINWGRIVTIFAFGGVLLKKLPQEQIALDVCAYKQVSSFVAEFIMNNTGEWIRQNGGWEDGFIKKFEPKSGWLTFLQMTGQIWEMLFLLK

[10] = target: T7, Ubiquitin-conjugating enzyme E2 N (Homo sapiens, UniProt P61088); assay type: functional
T7 sequence (P61088 whole entry): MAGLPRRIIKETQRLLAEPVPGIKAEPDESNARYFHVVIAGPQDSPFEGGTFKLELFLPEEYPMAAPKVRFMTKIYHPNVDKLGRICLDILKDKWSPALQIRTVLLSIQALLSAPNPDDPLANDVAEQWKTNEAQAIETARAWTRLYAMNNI

HEK293 [11] = assay: optical interference in Abeta FP readout, dose response, artefact control for IDE activator project, biochemical, fluorescence polarization (AID 588442); assay type: functional, cell-based; conditions: Homo sapiens
[12] = target: T7, Ubiquitin-conjugating enzyme E2 N; assay type: functional; remark: listed apart in the source
HEK293 [13] = assay: HEK cell cytotoxicity by LDH release, dose response, cytotoxicity control for IDE activator project, fluorescence, HEK cells (AID 588440); assay type: functional, cell-based; conditions: Homo sapiens;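 further: cytotoxicity by LDH release measuring loss of membrane integrity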
Insulin-degrading enzyme [14] = target: T5, Insulin-degrading enzyme; assay: activators of endogenous IDE in HEK cells, dose response, cell-based, fluorescence polarization (AID 588439); assay type: functional

| SMILES | IC50 [1] | IC50 [2] | IC50 (Caspase-3 [3]) | IC50 [4] | IC50 [5] | IC50 [6] | IC50 (Caspase-3 [7]) | IC50 [8] | EC50 (Insulin-degrading enzyme [9]) | IC50 (Bcl-2-related protein A1) | IC50 [10] | EC50 (HEK293 [11]) | IC50 [12] | IC50 (HEK293 [13]) | EC50 (Insulin-degrading enzyme [14]) |
| --- | --- | --- | --- | --- | --- | --- | --- | --- | --- | --- | --- | --- | --- | --- | --- |
| CCCCc1ccc2nc(NC(=O)c3cccn3C)sc2c1 | 0.944 µM (active) | 0.92 µM (active) | 0.72 µM (active) | 0.79 µM (active) | 0.938 µM (active) | 0.81 µM (active) | 0.749 µM (active) | 0.987 µM (active) | – | – | – | – | – | – | – |
| Cc1ccc2nc(NC(=O)c3cccc(S(=O)(=O)NCC4CCCO4)c3)sc2c1 (configuration not stated) | > 99 µM (inactive) | – | – | – | > 99 µM (inactive) | – | > 99 µM (inactive) | > 99 µM (inactive) | – | – | – | – | – | – | – |
| C#CCOCCOCCOCCNc1nc(N2CCN(C(=O)CCCCCCCCCCNC(=O)[C@H](CCCCN)n3cc(C[C@@H](C)CC)nn3)CC2)nc(N2CCN(C(=O)CCCCCCCCCCNC(=O)[C@H](CCCN=C(N)N)n3cc(C[C@@H](C)CC)nn3)CC2)n1 | – | – | – | – | – | – | – | – | > 2.03 µM (active) | 4.6 µM (active) | 1.44 µM (active) | > 54.7 µM (inactive) | 2 µM (active) | 2.17 µM (active) | > 2.03 µM (active) |
| O=C(CCc1ccccc1)NNc1cc(N2CCOCC2)nc(N2CCOCC2)n1 | – | > 99 µM (inactive) | > 99 µM (inactive) | > 99 µM (inactive) | – | > 99 µM (inactive) | – | – | – | – | – | – | – | – | – |
| O=C(c1ccccc1)C1NC1c1ccccc1 (configuration not stated) | – | – | – | – | – | – | – | – | > 54.7 µM (inactive) | – | – | > 54.7 µM (inactive) | – | > 89.3 µM (inactive) | > 54.7 µM (inactive) |
